Where a SMILES comes first, the peptide text is derived from it. Bridges are numbered along the chain shown (N, C = ends). The star is where a group is joined. Cbz = O=C(OCc1ccccc1)*
Columns and labels:
[1] = test system: pre-osteoclast RAW 264.7 cell culture; test: TRAP+ cell staining for osteoclast activation with WP9QY-loaded cement; format: cell-based; conditions: WP9QY released from MWCNT/CPC or CPC; 5 days; TNFalpha stimulated; FIG. 6
Source text: The MWCNT/CPC or CPC alone were loaded with WP9QY ([…], [SEQ ID NO: 1]), which is a peptide compound designed to compete ligand binding of RANK and to inhibit osteoclastogensis. The WP9QY peptide has a sequence of H-[…]OH [SEQ ID NO: 1], and was developed based on a structural analysis of the ligand binding site on TNF receptor 1 and RANK to inhibit osteoclast-activating. This cyclic peptide mimics the most critical tumor necrosis factor (TNF) recognition loop on TNF receptor 1, and prevents interaction of TNF with its receptor. The peptide was added directly to the cement paste to form the bone filler composition. Briefly, 100 μL of 1 mg/mL WP9QY was added into 0.5 mL DI water when mixing with 1 g of cement powder.
The cement pellet was washed with ethanol and left in a pre-osteoclast RAW 264.7 cell culture treated to trigger cell differentiation. To measure anti-osteoclast maturation of WP9QY released from the cement, the culture was stained for TRAP+ (osteoclast-like) cells after 5 days. TRAP+ cells are a marker for active osteoclasts after stimulated by the cytokine TNFalpha. The results, shown in FIG. 6, indicate that both composites can carry and release WP9QY.

RAW 264.7 culture = test: Anti-osteoclastogenesis: cathespin K expression by real-time PCR; format: cell-based; conditions: MG132 released from cement; 5-day TNFalpha treatment
Method: The anti-osteoclastogenesis of MG132-loaded cement was tested after a 5-day treatment of TNFalpha in RAW 264.7 culture. In this case, expression of the marker gene cathespin K was measured by real-time PCR.

Compound	osteoclast activation (TRAP+ cells) [1]	osteoclast maturation (cathespin K expression) (RAW 264.7 culture)
H-Tyr-Cys-Trp-Ser-Gln-Tyr-Leu-Cys-Tyr-OH (H-YCWSQYLCY-OH; disulfide 2-8 (inferred)) [WP9QY]	osteoclast activation was inhibited	–
CC(C)C[C@@H](C=O)NC(=O)[C@H](CC(C)C)NC(=O)[C@H](CC(C)C)NC(=O)OCc1ccccc1 [MG132] (Cbz-Leu-Leu-Leu-aldehyde)	–	osteoclast maturation can be inhibited
